From PubChem BioAssay AID248 (DTP/NCI, 2004)
Values joined by “and” are separate entries in the source; they are usually repeats but may differ in a detail not shown here. Equal values may be shown once. Inconclusive results and toxic doses are left out. Cut-off read from the data, not from the text of the source: active = T/C of 150% or more; inactive = T/C below 125%.

Test system: L1210 leukemia ip in BDF1 mice, survival T/C
Experiment: NCI In Vivo Anticancer Drug Screen. Data for tumor model L1210 Leukemia (intraperitoneal) in B6D2F1 (BDF1) mice
Conditions: endpoint: mean survival time, higher = longer survival
In short: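 Transplantable tumor model; survival measured in treated vs vehicle control mice. Value = treated/control.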

[1] = dose: 100.0 mg/kg/injection, schedule: Q01DX009 (ip), vehicle: saline with Tween-80
[2] = dose: 200.0 mg/kg/injection, schedule: Q01DX009 (ip), vehicle: saline with Tween-80
[3] = dose: 100.0 mg/kg/injection, schedule: Q04DX003 (ip), vehicle: Klucel (hydroxypropylcellulose) (HPC)
[4] = dose: 200.0 mg/kg/injection, schedule: Q04DX003 (ip), vehicle: Klucel (hydroxypropylcellulose) (HPC)
[5] = dose: 400.0 mg/kg/injection, schedule: Q04DX003 (ip), vehicle: Klucel (hydroxypropylcellulose) (HPC)
[6] = dose: 100.0 mg/kg/injection, schedule: Q04DX002 (ip), vehicle: Klucel (hydroxypropylcellulose) (HPC)
[7] = dose: 200.0 mg/kg/injection, schedule: Q04DX002 (ip), vehicle: Klucel (hydroxypropylcellulose) (HPC)
[8] = dose: 400.0 mg/kg/injection, schedule: Q04DX002 (ip), vehicle: Klucel (hydroxypropylcellulose) (HPC)
[9] = dose: 50.0 mg/kg/injection, schedule: Q01DX001 (ip), vehicle: carboxymethylcellulose (CMC)
[10] = dose: 100.0 mg/kg/injection, schedule: Q01DX001 (ip), vehicle: carboxymethylcellulose (CMC)
[11] = dose: 200.0 mg/kg/injection, schedule: Q01DX001 (ip), vehicle: carboxymethylcellulose (CMC)
[12] = dose: 25.0 mg/kg/injection, schedule: Q04DX003 (ip), vehicle: saline
[13] = dose: 50.0 mg/kg/injection, schedule: Q01DX009 (ip), vehicle: saline
[14] = dose: 50.0 mg/kg/injection, schedule: Q04DX003 (ip), vehicle: saline
[15] = dose: 100.0 mg/kg/injection, schedule: Q01DX009 (ip), vehicle: saline
[16] = dose: 100.0 mg/kg/injection, schedule: Q04DX003 (ip), vehicle: saline

Measured: T/C

C=COCCOC
inactive: [1] 104 % of control | [2] 101 % of control | dose: 400.0 mg/kg/injection, schedule: Q01DX009 (ip), vehicle: saline with Tween-80 107 % of control

NC(=O)c1c(Cl)cccc1Cl
inactive: [3] 111 % of control | [4] 101 % of control | [5] 101 % of control

CCCCCCCCCCCCCCCC[n+]1ccccc1
inactive: dose: 0.12 mg/kg/injection, schedule: Q01DX Z (ip), vehicle: water 101 % of control | dose: 0.25 mg/kg/injection, schedule: Q01DX Z (ip), vehicle: water 101 % of control | dose: 0.5 mg/kg/injection, schedule: Q01DX Z (ip), vehicle: water 108 % of control | dose: 1.0 mg/kg/injection, schedule: Q01DX Z (ip), vehicle: water 103 % of control

O=C1C=C(O)c2cc(Br)ccc2C1=O.[Ag]
inactive: dose: 100.0 mg/kg/injection, schedule: Q04DX002 (ip), vehicle: saline 105 % of control

CCC[CH2][Hg][O]C(C)=O
inactive: dose: 3.13 mg/kg/injection, schedule: Q01DX009 (ip), vehicle: saline sonified 89 % of control | dose: 6.25 mg/kg/injection, schedule: Q01DX009 (ip), vehicle: saline sonified 89 % of control | dose: 6.25 mg/kg/injection, schedule: Q04DX003 (ip), vehicle: Klucel (hydroxypropylcellulose) (HPC) 100 % of control | dose: 12.5 mg/kg/injection, schedule: Q01DX009 (ip), vehicle: saline sonified 87 % of control | dose: 12.5 mg/kg/injection, schedule: Q04DX003 (ip), vehicle: Klucel (hydroxypropylcellulose) (HPC) 92 % of control

COc1cc(NC(=O)Nc2ccc(F)c(Cl)c2)c(OC)cc1Cl
inactive: [6] 100 % of control | [7] 93 % of control | [8] 86 % of control

O=c1[nH]c(=O)c2c3c(sc2[nH]1)CCCC3
inactive: dose: 100.0 mg/kg/injection, schedule: Q01DX001 (ip), vehicle: saline sonified 91 % of control | dose: 200.0 mg/kg/injection, schedule: Q01DX001 (ip), vehicle: saline sonified 91 % of control | dose: 400.0 mg/kg/injection, schedule: Q01DX001 (ip), vehicle: saline sonified 103 % of control

COc1cc(C)ccc1Cl
inactive: dose: 50.0 mg/kg/injection, schedule: Q01DX009 (ip), vehicle: saline with Tween-80 107 % of control | [1] 113 % of control | [2] 110 % of control

CC(C)CC(C)N (stereo not given)
inactive: dose: 50.0 mg/kg/injection, schedule: Q04DX003 (ip), vehicle: Klucel (hydroxypropylcellulose) (HPC) 93 % of control | [3] 100 % of control | [4] 96 % of control

CCOC(=O)C(CCN1CCCCC1)c1cccc2ccccc12 (stereo not given)
inactive: [3] 100 % of control | [4] 88 % of control

C=CC1(C)CCC2C(=CCC3C2(C)CC(O)C(O)C3(C)COC2OC(CO)C(O)C(O)C2O)C1 (stereo not given)
inactive: dose: 75.0 mg/kg/injection, schedule: Q01DX001 (ip), vehicle: saline 96 % of control

O=[N+]([O-])c1ccccc1OCCBr
inactive: [3] 100 % of control | [4] 94 % of control

O=C(Nc1ccc(F)c(Cl)c1)Oc1ccc(OCc2ccccc2)cc1
inactive: [3] 94 % of control | [4] 94 % of control | [5] 95 % of control

N#CC1(Nc2ccc(S(N)(=O)=O)cc2)CCCC1
inactive: [9] 95 % of control | [10] 93 % of control | [11] 98 % of control

CCN(CC)c1ccc(C(=O)OC(C)CNCC(C)CCCC(C)C)cc1 (stereo not given)
inactive: dose: 75.0 mg/kg/injection, schedule: Q01DX001 (ip), vehicle: carboxymethylcellulose (CMC) 90 % of control | dose: 150.0 mg/kg/injection, schedule: Q01DX001 (ip), vehicle: carboxymethylcellulose (CMC) 94 % of control | dose: 300.0 mg/kg/injection, schedule: Q01DX001 (ip), vehicle: carboxymethylcellulose (CMC) 93 % of control

Oc1ccc(CNCCNCCNCc2ccc(O)cc2)cc1
inactive: dose: 12.5 mg/kg/injection, schedule: Q01DX009 (ip), vehicle: saline 87 % of control | dose: 25.0 mg/kg/injection, schedule: Q01DX009 (ip), vehicle: saline 102 % of control | [12] 110 % of control | [13] 93 % of control | [14] 95 % of control | [15] 102 % of control and 92 % of control | [16] 98 % of control and 92 % of control | dose: 200.0 mg/kg/injection, schedule: Q01DX009 (ip), vehicle: saline 105 % of control

O=C(NNC(=S)Nc1ccccc1Cl)c1ccncc1
inactive: dose: 75.0 mg/kg/injection, schedule: Q01DX009 (ip), vehicle: Klucel (hydroxypropylcellulose) (HPC) 93 % of control | dose: 150.0 mg/kg/injection, schedule: Q01DX009 (ip), vehicle: Klucel (hydroxypropylcellulose) (HPC) 97 % of control | dose: 300.0 mg/kg/injection, schedule: Q01DX009 (ip), vehicle: Klucel (hydroxypropylcellulose) (HPC) 101 % of control

OCC1(CO)CCC=CO1
inactive: [9] 113 % of control | [10] 100 % of control | [11] 100 % of control | dose: 400.0 mg/kg/injection, schedule: Q01DX001 (ip), vehicle: carboxymethylcellulose (CMC) 97 % of control

CC(CC(CCC(CC(C)CC(C)(C)C)N(C)C)N(C)C)CC(C)(C)C (stereo not given)
inactive: dose: 50.0 mg/kg/injection, schedule: Q01DX009 (ip), vehicle: Klucel (hydroxypropylcellulose) (HPC) 90 % of control | dose: 50.0 mg/kg/injection, schedule: Q04DX002 (ip), vehicle: Klucel (hydroxypropylcellulose) (HPC) 93 % of control | dose: 100.0 mg/kg/injection, schedule: Q01DX009 (ip), vehicle: Klucel (hydroxypropylcellulose) (HPC) 96 % of control | [6] 87 % of control | dose: 200.0 mg/kg/injection, schedule: Q01DX009 (ip), vehicle: Klucel (hydroxypropylcellulose) (HPC) 101 % of control

CN(C)Cc1ccccc1COC(=O)c1ccccc1
inactive: [6] 119 % of control | [7] 105 % of control | [8] 97 % of control

CCCCO.CCCCO.Cl.[O]=[V]
inactive: dose: 4.0 mg/kg/injection, schedule: Q01DX015 (ip), vehicle: other 97 % of control | dose: 8.0 mg/kg/injection, schedule: Q01DX015 (ip), vehicle: other 97 % of control | dose: 16.0 mg/kg/injection, schedule: Q01DX015 (ip), vehicle: other 96 % of control | dose: 32.0 mg/kg/injection, schedule: Q01DX015 (ip), vehicle: other 108 % of control

CC[N+](CC)(CC)CCC[n+]1ccc(/C=N\O)cc1
inactive: [12] 100 % of control | [13] 112 % of control | [14] 100 % of control | [15] 102 % of control | [16] 100 % of control and 92 % of control

O=C(O)c1cc(/C=C/c2ccccc2)ccc1[N+](=O)[O-]
inactive: [16] 103 % of control | dose: 200.0 mg/kg/injection, schedule: Q04DX003 (ip), vehicle: saline 97 % of control | dose: 400.0 mg/kg/injection, schedule: Q04DX003 (ip), vehicle: saline 100 % of control

CCCCCCCCN(CCCCCCCC)C(C)C(=O)c1ccc2cc(Br)c3ccccc3c2c1 (stereo not given)
inactive: dose: 100.0 mg/kg/injection, schedule: Q04DX003 (ip), vehicle: acetone 96 % of control | dose: 200.0 mg/kg/injection, schedule: Q04DX003 (ip), vehicle: acetone 107 % of control | dose: 400.0 mg/kg/injection, schedule: Q04DX003 (ip), vehicle: acetone 103 % of control
